From the supplement of paper PMC4862054

Columns and labels:
BT-474 = assay: normalised viability (% of control), CellTiter-Blue; higher = more viable cells (about 100 = DMSO control); conditions: 100 nM; incubation time: 72 h
Description: (§1)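 DSRT, CellTiter-Blue viability, 72 h incubation. Signal is normalised to DMSO and benzethonium chloride controls. Value is the normalised response at dose 3.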

BT-549 = assay: as above; conditions: 100 nM; incubation time: 72 h
Description: as §1

CAL-120 = assay: as above; conditions: 100 nM; incubation time: 72 h
Description: as §1

CAL-148 [1] = assay: as above; conditions: 10 nM; incubation time: 72 h
Description: as §1

CAL-51 [2] = assay: as above; conditions: 10 nM; incubation time: 72 h
Description: as §1

CAL-85-1 [3] = assay: as above; conditions: 10 nM; incubation time: 72 h
Description: as §1

DU-4475 [4] = assay: as above; conditions: 10 nM; incubation time: 72 h
Description: as §1

HCC1143 [5] = assay: as above; conditions: 100 nM; incubation time: 72 h
Description: as §1

HCC1599 [6] = assay: as above; conditions: 100 nM; incubation time: 72 h
Description: as §1

HCC1937 = assay: as above; conditions: 100 nM; incubation time: 72 h
Description: as §1

HDQ-P1 = assay: as above; conditions: 10 nM; incubation time: 72 h
Description: as §1

Hs578T = assay: as above; conditions: 100 nM; incubation time: 72 h
Description: as §1

MDA-MB-231 = assay: as above; conditions: 100 nM; incubation time: 72 h
Description: as §1

MDA-MB-436 [7] = assay: as above; conditions: 100 nM; incubation time: 72 h
Description: as §1

MDA-MB-453 = assay: as above; conditions: 10 nM; incubation time: 72 h
Description: as §1

MDA-MB-468 [8] = assay: as above; conditions: 100 nM; incubation time: 72 h
Description: as §1

MFM-223 = assay: as above; conditions: 100 nM; incubation time: 72 h
Description: as §1

SK-BR-3 [9] = assay: as above; conditions: 100 nM; incubation time: 72 h
Description: as §1

CAL-148 [10] = assay: normalised viability (% of control), CellTiter-Blue; higher = more viable cells (about 100 = DMSO control); conditions: 300 nM; incubation time: 72 h
Outline: (§2)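 Normalised viability is given for a single listed concentration of the series. In 384-well plates, breast cancer cell lines were incubated 72 h with compound, then read with CellTiter-Blue (2 h, 37 °C) at 560/590 nm. Per-plate scaling set vehicle to 100 and a positive kill control to 0, with Z'-factor quality control.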

CAL-51 [11] = assay: as above; conditions: 300 nM; incubation time: 72 h
Outline: as §2

CAL-85-1 [12] = assay: as above; conditions: 300 nM; incubation time: 72 h
Outline: as §2

DU-4475 [13] = assay: as above; conditions: 300 nM; incubation time: 72 h
Outline: as §2

CAL-148 [14] = assay: drug sensitivity score (DSS), CellTiter-Glo (DSS (AUC-based score)); higher = stronger drug effect (viability inhibition or cytotoxicity); extreme values may be limits of the assay; conditions: incubation time: 72 h
Outline: (§3)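 A drug sensitivity score was derived from the area under each fitted dose-response curve. Breast cancer cells (20 µl suspension) were seeded onto compound in 384-well plates, using 5 concentrations 10-fold apart over a compound-specific 10,000-fold range, and incubated 72 h. Readouts were CellTox Green fluorescence and then CellTiter-Glo luminescence, with every plate normalised to 0.1 % DMSO and a positive kill control.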

HCC1143 [15] = assay: as above; conditions: incubation time: 72 h
Outline: as §3

HCC1599 [16] = assay: as above; conditions: incubation time: 72 h
Outline: as §3

MCF-10A = assay: as above; conditions: incubation time: 72 h
Outline: as §3

MDA-MB-436 [17] = assay: as above; conditions: incubation time: 72 h
Outline: as §3

MDA-MB-468 [18] = assay: as above; conditions: incubation time: 72 h
Outline: as §3

SK-BR-3 [19] = assay: as above; conditions: incubation time: 72 h
Outline: as §3

Row | Compound | normalised viability (BT-474) | normalised viability (BT-549) | normalised viability (CAL-120) | normalised viability (CAL-148 [1]) | normalised viability (CAL-51 [2]) | normalised viability (CAL-85-1 [3]) | normalised viability (DU-4475 [4]) | normalised viability (HCC1143 [5]) | normalised viability (HCC1599 [6]) | normalised viability (HCC1937) | normalised viability (HDQ-P1) | normalised viability (Hs578T) | normalised viability (MDA-MB-231) | normalised viability (MDA-MB-436 [7]) | normalised viability (MDA-MB-453) | normalised viability (MDA-MB-468 [8]) | normalised viability (MFM-223) | normalised viability (SK-BR-3 [9]) | normalised viability (CAL-148 [10]) | normalised viability (CAL-51 [11]) | normalised viability (CAL-85-1 [12]) | normalised viability (DU-4475 [13]) | drug sensitivity score (CAL-148 [14]) | drug sensitivity score (HCC1143 [15]) | drug sensitivity score (HCC1599 [16]) | drug sensitivity score (MCF-10A) | drug sensitivity score (MDA-MB-436 [17]) | drug sensitivity score (MDA-MB-468 [18]) | drug sensitivity score (SK-BR-3 [19])
1 | CCc1cncnc1N1CCN(Cc2nc3ccc(C(F)(F)F)cc3[nH]2)CC1 | 123% | 88.2% | 105% | 107% | 87% | 96.3% | 94.2% | 132% | 86.2% | 104% | 116% | 96.4% | 91.6% | 99.8% | 98.8% | 117% | 103% | 98.2% | 107% | 88.1% | 89.8% | 105% | 0 | 0 | 0 | 0 | 0 | 2.68 | 0
2 | C=CC(=O)Nc1cc2c(Nc3ccc(F)c(Cl)c3)ncnc2cc1OCCCN1CCOCC1 [Canertinib] | 55.7% | 114% | 81.5% | 81.9% | 109% | 85.4% | 108% | 90.1% | 91.8% | 97.4% | 96.6% | 79.4% | 91.7% | 102% | 95% | 67.1% | 98.3% | 21.4% | 81.2% | 104% | 54% | 93.3% | 5.7 | 3.9 | 3.8 | 22 | 4.2 | 10.6 | 20.8
3 | CC1=C(/C=C/C(C)=C/C=C/C(C)=C/C(=O)O)C(C)(C)CCC1 [Tretinoin] | 122% | 107% | 77.7% | 92.1% | 100% | 99.2% | 100% | 86.2% | 92.2% | 98.9% | 125% | 91.5% | 94% | 99.5% | 92.9% | 115% | 86.2% | 87.1% | 74% | 96.2% | 96.6% | 91.1% | 2.48 | 0 | 0.765 | 4.05 | 0 | 2.13 | 7.99
